This is an account of results in patent US6365618B1, “Administration of carvedilol to mitigate tardive movement disorders, psychosis, mania, and depression” (priority 2000, dated 2002).

For data set [1], the system named is tardive dyskinesia. The conditions noted are these: most studies; cited from earlier work.
Data set [2] has as its system tardive dyskinesia. Kind of data set: Case reports: oral carvedilol in hospitalized patients with tardive dyskinesia. It is filed as in vivo, human. On the procedure: (§1) Clozapine is recognized as a drug that, because of dangerous side-effects, is reserved as the last resort after the failure of long courses and high doses of several other antipsychotic medications. […] Carvedilol 6.25 mg once daily was then started. On 11/15 the carvedilol dose was increased to 6.25 mg twice daily. […] On the ninth hospital day carvedilol was discontinued.
On the first hospital day carvedilol 3.125 mg twice daily was started. […] Carvedilol was then restarted. […] Carvedilol was continued for a month.
This person was admitted to the hospital for the treatment of an anxiety disorder whose symptoms included insomnia, nightmares, unhappiness, suicidality, continual worry, and panic attacks. They had previously taken the antidepressants nortriptyline and fluoxetine, and was taking nefazodone 375 mg/day for one year. They were also taking the antihypertensive medication benazepril 40 mg/day, and the sleeping medication zaleplon 10 mg/day. […] They then received carvedilol 3.125 mg twice daily.
This person was in the hospital because of difficulty swallowing. […] This aspiration put them at risk of aspiration pneumonia, which is disabling and can be life-threatening. For them to receive water and food a tube was surgically inserted between their stomach and the outside of their abdomen. […] They then received carvedilol 6.25 mg twice daily.

The conditions of data set [3]: cited from earlier work.
The nature of data set [4]: Side effects of carvedilol in patients. It is filed as in vivo, human. The method, then:
as §1

The test system of the next data set is tardive dystonia. Kind of data set: Case report: oral carvedilol, tardive dystonia and swallowing difficulty. In kind it is in vivo, human. The conditions noted are these: Case #4; carvedilol 6.25 mg twice daily; 28 hours, after three doses. From the text:
This person was in the hospital because of difficulty swallowing. This began about a year prior to hospitalization while taking haloperidol and lithium medications. Increasingly they would cough while eating or drinking. […] The swallowing difficulty worsened despite replacement of lithium and haloperidol with divalproex and olanzapine. […] This aspiration put them at risk of aspiration pneumonia, which is disabling and can be life-threatening. For them to receive water and food a tube was surgically inserted between their stomach and the outside of their abdomen. […] When they tried to drink water from a cup these movements obviously interfered with swallowing. […] On the Abnormal Involuntary Movement SCALE (AIMS) they scored 13. They then received carvedilol 6.25 mg twice daily. Twenty-eight hours later, after three doses, their swallowing was rated by the Speech Therapy Department as 70% improved.

A further data set has as its system tardive akathisia. Nature of the data set: Case reports: oral carvedilol, agitated movements of tardive akathisia. It is filed as in vivo, human. An excerpt:
These movements were consistent with tardive dyskinesia. […] They mentioned having been told by several psychiatrists that […] has tardive dyskinesia, and that […]'d previously taken numerous different antipsychotic drugs, including risperidone, olanzapine, and clozapine. Clozapine is recognized as a drug that, because of dangerous side-effects, is reserved as the last resort after the failure of long courses and high doses of several other antipsychotic medications. On the third hospital day, a Friday (Nov. 13, 1998), the tongue protrusion movements continued unchanged. Carvedilol 6.25 mg once daily was then started. On 11/15 the carvedilol dose was increased to 6.25 mg twice daily. When next evaluated, at 9am on Monday 11/16, the tongue protrusions were absent. The absence of dyskinesia persisted despite the patient's repeated expressions of anxiety and anxious thoughts. […] Agitation then decreased, a sign of improvement in tardive akathisia. On the ninth hospital day carvedilol was discontinued. The patient was discharged on the 15th hospital day, without recurrence of any tongue protrusion, and without observable agitation. […] They spontaneously complained that children in their neighborhood mocked them and called them a witch because of the tongue movements. They stated that […] avoids leaving the house because of harassment by the children. […]

For data set [5] the following is noted: cited from earlier work. The source holds these as a separate data set.
Data set [6] deals with acute dystonias induced by antipsychotic medication. The conditions noted are these: monkeys; cited from earlier work.
For data set [7], the system named is orofacial movements caused by haloperidol. The conditions noted are these: one-day and two-week trials; cited from earlier work.
The mark [8] stands for this setting: Case #3, carvedilol 3.125 mg twice daily, 24 hours, after two doses.

In the case of vitamin E, the “improvement of TD” value in the data set with tardive dyskinesia [1] was “no significant improvement”.
Turning to `COc1ccccc1OCCNCC(O)COc1cccc2[nH]c3ccccc3c12` (racemic) [carvedilol, ±-1-(carbazol-4-yloxy)-3-[[2-(o-methyoxyphenoxy)ethyl]amino]-2-propanol], in the data set with tardive dyskinesia [2] (Case #1, carvedilol 6.25 mg once daily, then twice daily, evaluated after 3 days), the tongue protrusions result is “absent”. In addition, the tongue protrusions entry in the data set on tardive dyskinesia [2] (Case #2, carvedilol 3.125 mg twice daily, next day) is on record as “no extensions of the tongue out of the mouth occurred”. In addition, the “tongue protrusions after carvedilol restarted” value in the data set with tardive dyskinesia [2] (Case #2, rehospitalized, carvedilol restarted, beginning on the next day) is “no longer seen”. Besides, in the data set with tardive dyskinesia [2] (setting [8]), the chewing movements entry is on record as “gone”; the “lip and tongue movements” value is reported as “in normal range”. Moreover, the “AIMS score (Abnormal Involuntary Movement Scale)” value in the data set with tardive dyskinesia [2] (Case #3, carvedilol 3.125 mg twice daily, 24 hours, after two doses, score before treatment 11) amounted to 6. Moreover, the tongue dyskinesia result with tardive dyskinesia [2] (Case #4, carvedilol 6.25 mg twice daily, 28 hours, after three doses) is “decreased from mild to marginal”. For the same compound, the “AIMS score (Abnormal Involuntary Movement Scale)” value with tardive dyskinesia [2] (Case #4, carvedilol 6.25 mg twice daily, 28 hours, after three doses, score before treatment 13) came out at 8. In addition, in [3], the “in vitro antioxidant activity” value is “exceptionally potent”. For the same compound, the faintness or bradycardia entry in data set [4] (Case #1, carvedilol 6.25 mg twice daily) is “lack of any faintness or bradycardia”. Moreover, the side effects result in data set [4] (usually effective doses to treat TD) is given as “non-existent or mild”. For the same compound, in the data set with tardive dystonia, the facial dystonia result was “disappeared”, the neck dystonia result is listed as “decreased from moderate to mild” and the “swallowing improvement rated by Speech Therapy Department” value worked out at 70%. Also, in the data set with tardive akathisia (Case #1, carvedilol 6.25 mg in the morning and 12.5 mg at bedtime), the “agitation (sign of tardive akathisia)” value is “decreased”. The “agitated movements consistent with tardive akathisia” value in the data set with tardive akathisia (Case #2, at discharge after one week of carvedilol) is reported as “no agitated movements”. Moreover, the average elimination half-life result in [5] (from the human body) is reported as “about 8 hours”. In data set [5] (taken by mouth), the absorption entry is “rapid and complete”.
For the compound `C#CCN(C)Cc1ccccc1` [pargyline], the “acute dystonias induced by antipsychotic medication” value in data set [6] is recorded as “reduced”.
In the case of `CC(C)NCC(O)COc1cccc2ccccc12` (stereo not drawn) [propranolol], the “orofacial movements caused by haloperidol” value in data set [7] is reported as “did not diminish”.
